Consider 9 compounds from ChEMBL document CHEMBL1212816, “Proanthocyanidins from the leaves of Machilus philippinensis” (J Nat Prod, 2010).

By IC50 is commonly meant the concentration that inhibits the measured activity by half. Low readings indicate greater potency in that assay, high ones weaker potency in that assay.

The nature of this experiment: Inhibition of Bacillus stearothermophilus alpha glucosidase-4. The arrangement: species or system Geobacillus stearothermophilus.
Take `Oc1cc(O)c2c(c1)O[C@H](c1ccc(O)c(O)c1)[C@H](O)[C@H]2c1c(O)cc2c(c1O)[C@@H]1c3c(cc(O)c4c3O[C@H](c3ccc(O)c(O)c3)[C@H](O)[C@H]4c3c(O)cc(O)c4c3O[C@H](c3ccc(O)c(O)c3)[C@H](O)C4)O[C@](c3ccc(O)c(O)c3)(O2)[C@@H]1O`: the IC50 was determined as 10.5 µM.

In turn, `Oc1cc(O)c2c(c1)O[C@H](c1ccc(O)c(O)c1)[C@H](O)[C@H]2c1c(O)c2c(c3c1O[C@]1(c4ccc(O)c(O)c4)Oc4cc(O)cc(O)c4[C@H]3[C@H]1O)O[C@H](c1ccc(O)c(O)c1)[C@H](O)[C@H]2c1c(O)cc(O)c2c1O[C@H](c1ccc(O)c(O)c1)[C@H](O)C2` came in with an IC50 greater than 100 µM. Next, `Oc1cc(O)c2c(c1)O[C@H](c1ccc(O)c(O)c1)[C@H](O)[C@H]2c1c(O)cc(O)c2c1O[C@H](c1ccc(O)c(O)c1)[C@H](O)[C@H]2c1c(O)c2c(c3c1O[C@]1(c4ccc(O)c(O)c4)Oc4cc(O)cc(O)c4[C@H]3[C@H]1O)O[C@H](c1ccc(O)c(O)c1)[C@H](O)[C@H]2c1c(O)cc(O)c2c1O[C@H](c1ccc(O)c(O)c1)[C@H](O)C2`: 31.3 µM; `Oc1cc(O)c2c(c1)O[C@H](c1ccc(O)c(O)c1)[C@H](O)[C@H]2c1c(O)cc(O)c2c1O[C@H](c1ccc(O)c(O)c1)[C@H](O)[C@H]2c1c(O)cc(O)c2c1O[C@H](c1ccc(O)c(O)c1)[C@H](O)[C@H]2c1c(O)c2c(c3c1O[C@]1(c4ccc(O)c(O)c4)Oc4cc(O)cc(O)c4[C@H]3[C@H]1O)O[C@H](c1ccc(O)c(O)c1)[C@H](O)[C@H]2c1c(O)cc(O)c2c1O[C@H](c1ccc(O)c(O)c1)[C@H](O)C2`: 18.4 µM. Consider `Oc1cc(O)c2c(c1)O[C@H](c1ccc(O)c(O)c1)[C@H](O)C2` [(-)-EPICATECHIN], for which the IC50 is greater than 100 µM.

Compound `C[C@H]1O[C@H](O[C@H]2[C@H](O)[C@@H](O)[C@@H](O[C@H]3[C@H](O)[C@@H](O)C(O)O[C@@H]3CO)O[C@@H]2CO)[C@H](O)[C@@H](O)[C@@H]1N[C@H]1C=C(CO)[C@@H](O)[C@H](O)[C@H]1O` (some centres undefined) [ACARBOSE] came in with a half-maximal inhibitory concentration (IC50) of 0.049 µM. For `Oc1cc(O)c2c(c1)O[C@@]1(c3ccc(O)c(O)c3)Oc3cc(O)c4c(c3[C@@H]2[C@H]1O)O[C@@H](c1ccc(O)c(O)c1)[C@H](O)[C@H]4c1c(O)cc(O)c2c1O[C@H](c1ccc(O)c(O)c1)[C@H](O)C2` [AESCULTITANNIN B], half-maximal inhibition (IC50) required 3.5 µM. The figure for `Oc1cc(O)c2c(c1)O[C@@]1(c3ccc(O)c(O)c3)Oc3cc(O)c4c(c3[C@@H]2[C@H]1O)O[C@H](c1ccc(O)c(O)c1)[C@H](O)[C@H]4c1c(O)cc(O)c2c1O[C@H](c1ccc(O)c(O)c1)[C@H](O)C2` [CINNAMTANNIN B1] is greater than 100 µM. Regarding `Oc1cc(O)c2c(c1)O[C@@]1(c3ccc(O)c(O)c3)Oc3cc(O)c4c(c3[C@@H]2[C@H]1O)O[C@H](c1ccc(O)c(O)c1)[C@H](O)[C@H]4c1c(O)cc(O)c2c1O[C@H](c1ccc(O)c(O)c1)[C@@H](O)C2` [CINNAMTANNIN D1], inhibition was half-maximal at 92.9 µM (IC50). This lies in the double-digit micromolar range.
